Data taken from patent US8952192B2, “Phosphorylated and branched dihydroxy-pentane-dione (DPD) analogs as quorum sensing inhibitors in bacteria” (University of Maryland, College Park, priority 2011, dated 2015).
Entries after “also recorded” stand apart in the source; their conditions may differ.

Tests used:
V. harveyi = assay: DPD analogs and representative bacterial species affected (Table 1); type: cell-based; parameters: key: x: DPD Analogs and representative bacterial species affected
S. typhimurium MET708 = assay: Trispecies synthetic ecosystem (S. typhimurium, V. harveyi, E. coli): β-galactosidase activity; type: cell-based; settings: trispecies co-culture, lacZ activity after 4 hours
Description: To investigate the effect of the DPD analogs in a mixed bacterial environment, a synthetic ecosystem composed of three different bacterial populations was assembled. Specifically, S. typhimurium MET708, V. harveyi BB170 and E. coli W3110 (pCT6), each luxS^+ (Table 2), and each producing their native AI-2 were co-cultured in the same tubes. By design, each species was selected so that a different reporter probe would indicate the specific bacterium's QS response: S. typhimurium (MET708) expresses β-galactosidase; V. harveyi (BB170) elicits bioluminescience; and E. coli (W331) are engineered to synthesize GFP. In this way, their responses can be differentiated and quantified in response to AI-2.
The S. typhimurium MET708, V. harveyi BB170 and E. coli W3110 pCT6 were each cultured separately overnight in LM medium supplemented with the appropriate antibiotic. […] The V. harveyi luminescence response was measured after 2.5 hours. The S. typhimurium lacZ (β-galactosidase) activity was measured after 4 hours. The E. coli response was determined after 8 hours, by fixing the cells with 1:1 cold 4% paraformaldehyde and using flow cytometric analysis. Samples were analyzed by flow cytometery (FACS Canto II, BD 394 Biosciences), with 20,000 gated events analyzed per sample.

E. coli = assay: DPD analogs and representative bacterial species affected (Table 1); type: cell-based; parameters: key: x: DPD Analogs and representative bacterial species affected
[1] = system: lsr expression in S. typhimurium (lsr-lacZ reporter strains); assay: QS response (lsr expression): AI-2 dependent β-galactosidase production, Miller assay; type: cell-based, Salmonella typhimurium
Experimental: The panel of C1-alkyl analogs was screened to identify QS modulators in the enteric bacteria E. coli and S. typhimurium. Transcription of the QS associated lsr operon, by using lsr-lacZ reporter strains (Table 2) which produce β-galactosidase in response to added AI-2 was monitored. In order to first establish if the analogs were agonists or antagonists in the QS circuit, the analogs were incubated with E. coli LW7 pLW11 and S. typhimurium MET715 (FIG. 19a-b) both of which are luxS^−. None of the analogs, except ethyl-DPD behaved as agonists for lsr expression. Previous studies investigating AI-2 antagonism in P. aeruginosa or in S. typhimurium were carried out using chemically synthesized AI-2 added to luxS^− cells. […] The same trends were obtained by adding a 1:1 ratio of enzymatically synthesized AI-2 and DPD analogs to the luxS^− strains E. coli LW7 pLW11 and S. typhimurium MET715 (FIG. 11a-b). None of the tested DPD analogs were bacteriocidal or bacteriostatic as the OD600 values of E. coli ZK126 pLW11 and S. typhimurium MET708 in the presence and absence of the analogs were similar (FIG. 10). Though the QS circuitry of the enteric organisms, E. coli and S. typhimurium are homologous they respond differently to the DPD analogs. The E. coli QS circuitry is susceptible to being silenced by a variety of DPD analogs of different shapes and sizes whereas in S. typhimurium, only a handful of DPD analogs could antagonize the action of AI-2. […] Isobutyl-DPD emerged as an effective and non-species-specific quencher; causing significant lsr expression knockdowns in both E. coli and S. typhimurium.
The QS response indicated by lsr gene expression was analyzed in pure culture studies by culturing E. coli LW7 pLW11, E. coli ZK126 pLW11 and S. typhimurium MET708, S. typhimurium MET715 overnight in LB medium supplemented with appropriate antibiotics as stated previously. These cells were then diluted into fresh LB medium (with antibiotics) and grown to an OD600 of 0.8-1.0 at 30° C., 250 rpm. Cells were then collected by centrifugation at 10,000×g for 10 minutes, and resuspended in 10 mM phosphate buffer. AI-2 (20 μM) and the respective analog (20 μM) were added to the E. coli or S. typhimurium suspension for 2 hours at 37° C. AI-2 dependent β-galactosidase production was quantified by the Miller assay.
The QS response indicated by lsr gene expression was analyzed in pure culture studies by culturing E. coli LW7 pLW11 and S. typhimurium MET715 overnight at 30° C. in LB medium supplemented with appropriate antibiotics as stated previously. These cells were then diluted into fresh LB medium (with antibiotics) and grown to an OD600 of 0.4-0.8 at 37° C., 250 rpm. Cells were then collected by centrifugation at 10,000×g for 10 min and resuspended in 10 mM phosphate buffer. AI-2 (20 μM) and the respective analog (20 μM) were added to the E. coli or S. typhimurium suspension for 2 h at 37° C. AI-2 dependent β-galactosidase production was quantified by the Miller assay.
The QS response indicated by lsr gene expression was analyzed in pure culture studies by culturing E. coli LW7 pLW11, E. coli ZK126 pLW11 and S. typhimurium MET708, S. typhimurium MET715 overnight in LB medium individually supplemented with appropriate antibiotics, as specified above. These cells were diluted into fresh LB medium (with antibiotics) and grown to an OD600 of 0.8-1.0 at 30° C., 250 rpm. Cells were collected by centrifugation at 10,000×g for 10 minutes, and resuspended in 10 mM phosphate buffer. AI-2 (20 μM) and the respective analog (20 μM) were added to the E. coli or S. typhimurium suspension for 2 hours at 37° C. AI-2 dependent β-galactosidase production was quantified by the Miller assay.

S. typhimurium = assay: DPD analogs and representative bacterial species affected (Table 1); type: cell-based; parameters: key: x: DPD Analogs and representative bacterial species affected

CC(C)CC(=O)C(=O)[C@@H](O)CO [Isobutyl-DPD, isobutyl-DPD]
bacterial species affected: V. harveyi (V. harveyi): x
decrease of S. typhimurium β-galactosidase activity (S. typhimurium MET708): 4 fold
bacterial species affected: E. coli (E. coli): x
effect on native lsr expression (QS response) ([1]; S. typhimurium MET708 (luxS+), cells produce their own AI-2): significant knocked down; also recorded: significantly inhibited signaling
decrease of lacZ expression ([1]; S. typhimurium MET715 (LuxS−), 20 μM AI-2 + 20 μM analog): about 50%
IC50 ([1]; concentration reducing lsr expression (β-galactosidase production) to 50% in the presence of 20 μM exogenously added synthetic DPD, read-out: IC50 of analog (nM) to inhibit QS in S. typhimurium): 20000 nM
bacterial species affected: S. typhimurium (S. typhimurium): x
